Converted amounts (≈) assume the structure as drawn.
Legend:
E. coli [1] = assay: Broth microdilution (BMD) MIC; format: cell-based, Escherichia coli; set-up: key to susceptibility classification, BMD: (S) sensitive; (I) intermediate; (R) resistant; conditions: broth microdilution; for MIC: Escherichia coli, read-out: Minimum inhibitory concentration, BMD
Procedure: (§1) Microbroth dilution for minimum inhibitory concentrations (MIC) with and without sucrose recovery. To isolate bacteria without sucrose, culture media from positive BacT/alert FA PLUS aerobic culture bottles (bioMérieux, Durham, NC) was serially diluted and plated onto LB agar (Lennox; Sigma-Aldrich, St. Louis, MO). Bacterial suspensions were prepared by resuspending colonies in CAMHB with incubation on a MaxQ 4000 incubator shaker (Thermo Fisher Scientific, Waltham, MA) at 37° C. and ˜225 rpm for 3 hours. Bacteria recovered via Method 2 were diluted 10-fold in CAMHB. Following incubation or sucrose recovery and dilution, bacterial suspensions were adjusted to ˜0.004 OD600 with CAMHB and a 50-μL aliquot distributed to each well of a 96-well plate containing CAMHB with and without clinically relevant antibiotics (2-fold dilution series). Gram-negative plates included: ceftazidime (3rd generation cephalosporin, RPI corp., Mount Prospect, IL), cefepime (4th generation cephalosporin, Chem-Impex Int'l, Wood Dale, IL), meropenem (carbapenem, Tokyo Chemical Industry, Tokyo, Japan), levofloxacin (quinolone, Alfa Aesar, Haverhill, MA), and tobramycin (aminoglycoside, MP Biomedicals LLC, Santa Ana, CA), while S. aureus plates contained: oxacillin (beta-lactam, Sigma-Aldrich, St. Louis, MO), vancomycin (glycopeptide, Santa Cruz Biotechnology, Dallas, TX), erythromycin (macrolide, Sigma-Aldrich, St. Louis, MO), clindamycin ([…]), and ciprofloxacin (fluoroquinolone, Sigma-Aldrich, St. Louis, MO). Antibiotic plates were incubated at 37° C. for 16-20 hours (gram-negative) or 35° C. for 24 hours (S. aureus), at which time, plates were removed from the incubator and visually inspected for bacterial growth. The MIC was set at the lowest antibiotic concentration at which no growth was detected.

E. coli [2] = assay: Direct flow cytometric AST (high-throughput flow cytometry, HTFC) of sucrose-recovered bacteria; format: cell-based, Escherichia coli; set-up: key to susceptibility classification, HTFC: (S) sensitive; (I) intermediate; (R) resistant; conditions: sucrose-recovered, antibiotic 4 hours (37° C.); for MIC: Escherichia coli, 4 h, read-out: Minimum inhibitory concentration, HTFC
Procedure: (§2) AST workflow using bacteria recovered directly from positive blood culture. A 1-mL aliquot of bacteria recovered using separation method 2 was diluted 10-fold in CAMHB, the OD600 adjusted to ˜0.01, and a 50 μL aliquot distributed into each well of a 96-well plate containing CAMHB with and without ceftazidime, tobramycin, and either meropenem (E. coli and P. aeruginosa) or oxacillin (S. aureus). Following Clinical and Laboratory Standards Institute (CLSI) guidelines^33, 2% sodium chloride (NaCl) was present in wells containing oxacillin to assist in the detection of methicillin-resistant S. aureus (MRSA). […] To account for observed differences in doubling and lag times, E. coli and P. aeruginosa were incubated for 4 hours at 37° C., while S. aureus was incubated for 9 hours at 35° C. After incubation, antibiotic plates were removed from the incubator and directly stored on ice (i.e. no post-processing) until high-throughput flow cytometry (BD LSRFortessa with HTS-system, BD, Franklin Lakes, NJ). No-antibiotic controls and antibiotic-treated samples were handled identically.
(§3) MIC Determination by flow cytometry. Because antibiotic effects are observed in both the position of scatter signatures (morphology changes) and count rates (growth inhibition), a modified count rate, accounting for scatter position, was used to evaluate susceptibility. Briefly, no-antibiotic control populations (triplicate) were pooled, binned, and a convex hull boundary set at 1-standard deviation above the background (not including bins with zero counts) was drawn. […] The overlap ratio, measuring changes in morphology, was then computed by dividing the number of sample events within the no-antibiotic control boundary by the total number of events within the sample. As an increase in count rate attributed to viable bacteria in antibiotic-treated samples is not scientifically meaningful, the fractional overlap was multiplied by the minimum of the control and sample count rates to generate a modified count rate accounting for antibiotic-induced morphological changes. All modified count rates were normalized by the average of the no-antibiotic controls. For automatic MIC determination, normalized count rates corresponding to n (index of predicted MIC), n+1, n+2 were iteratively fit to a linear function with a frameshift of n+1 between iterations (FIGS. 8 and 9). […] A threshold of −0.01 instead of zero was used to mitigate the influence of small fluctuations in normalized count rates on susceptibility determinations.

P. aeruginosa [3] = assay: as above; format: cell-based, Pseudomonas aeruginosa; set-up: key to susceptibility classification, HTFC: (S) sensitive; (I) intermediate; (R) resistant; conditions: for MIC: Pseudomonas aeruginosa, read-out: Minimum inhibitory concentration, HTFC
Procedure: as §2, §3

P. aeruginosa [4] = assay: Broth microdilution (BMD) MIC; format: cell-based, Pseudomonas aeruginosa; set-up: key to susceptibility classification, BMD: (S) sensitive; (I) intermediate; (R) resistant; conditions: for MIC: Pseudomonas aeruginosa
Procedure: as §1

MIC (E. coli [1]; E. coli Blood Culture A): ≤ 0.06 µg/mL | MIC (E. coli [1]; E. coli Blood Culture B): ≤ 0.06 µg/mL | MIC (E. coli [1]; E. coli EC37): ≤ 0.06 µg/mL | MIC (E. coli [1]; E. coli EC-bank): 2 µg/mL (≈ 5.22 µM) | MIC (E. coli [1]; E. coli Mu76): 0.5 µg/mL (≈ 1.3 µM) | MIC (E. coli [1]; E. coli Mu218): ≤ 0.06 µg/mL | MIC (E. coli [1]; E. coli Mu890): ≤ 0.06 µg/mL | MIC (P. aeruginosa [4]; P. aeruginosa Blood Culture B, broth microdilution, read-out: Minimum inhibitory concentration, BMD): 8 µg/mL (≈ 20.9 µM) | MIC (P. aeruginosa [4]; P. aeruginosa Blood Culture C, broth microdilution, read-out: Minimum inhibitory concentration, BMD): 0.25 µg/mL (≈ 0.652 µM) | MIC (P. aeruginosa [4]; P. aeruginosa PA7, broth microdilution, read-out: Minimum inhibitory concentration, BMD): 1 µg/mL (≈ 2.61 µM) | MIC (P. aeruginosa [4]; P. aeruginosa PA46, broth microdilution, read-out: Minimum inhibitory concentration, BMD): 0.25 µg/mL (≈ 0.652 µM) | MIC (P. aeruginosa [4]; P. aeruginosa PA49, broth microdilution, read-out: Minimum inhibitory concentration, BMD): 0.5 µg/mL (≈ 1.3 µM) | MIC (P. aeruginosa [4]; P. aeruginosa PA81, broth microdilution, read-out: Minimum inhibitory concentration, BMD): 8 µg/mL (≈ 20.9 µM) | MIC (P. aeruginosa [4]; P. aeruginosa, strain not named (FIG. 13), read-out: MIC as determined by broth microdilution): 1 µg/mL (≈ 2.61 µM) | MIC (P. aeruginosa [4]; PAO1, P. aeruginosa PAO1, broth microdilution, read-out: Minimum inhibitory concentration, BMD): 0.5 µg/mL (≈ 1.3 µM)
SMILES: C[C@@H](O)[C@H]1C(=O)N2C(C(=O)O)=C(S[C@@H]3CN[C@H](C(=O)N(C)C)C3)[C@H](C)[C@H]12 [Meropenem, meropenem]
susceptibility classification, BMD (E. coli [1]; E. coli Blood Culture A): (S) | susceptibility classification, BMD (E. coli [1]; E. coli Blood Culture B): (S) | susceptibility classification, BMD (E. coli [1]; E. coli EC37): (S) | susceptibility classification, BMD (E. coli [1]; E. coli EC-bank): (I) | susceptibility classification, BMD (E. coli [1]; E. coli Mu76): (S) | susceptibility classification, BMD (E. coli [1]; E. coli Mu218): (S) | susceptibility classification, BMD (E. coli [1]; E. coli Mu890): (S) | susceptibility classification, HTFC (E. coli [2]; E. coli Blood Culture A): (S) | susceptibility classification, HTFC (E. coli [2]; E. coli Blood Culture B): (S) | susceptibility classification, HTFC (E. coli [2]; E. coli EC37): (S) | susceptibility classification, HTFC (E. coli [2]; E. coli EC-bank): (S) | susceptibility classification, HTFC (E. coli [2]; E. coli Mu76): (R) | susceptibility classification, HTFC (E. coli [2]; E. coli Mu218): (S) | susceptibility classification, HTFC (E. coli [2]; E. coli Mu890): (S) | MIC (E. coli [2]; E. coli Blood Culture A): ≤ 0.06 µg/mL | MIC (E. coli [2]; E. coli Blood Culture B): ≤ 0.06 µg/mL | MIC (E. coli [2]; E. coli EC37): ≤ 0.06 µg/mL | MIC (E. coli [2]; E. coli EC-bank): ≤ 0.06 µg/mL | MIC (E. coli [2]; E. coli Mu76): 4 µg/mL (≈ 10.4 µM) | MIC (E. coli [2]; E. coli Mu218): ≤ 0.06 µg/mL | MIC (E. coli [2]; E. coli Mu890): ≤ 0.06 µg/mL | susceptibility classification, HTFC (P. aeruginosa [3]; P. aeruginosa Blood Culture B, antibiotic 4 hours (37° C.)): (S) | susceptibility classification, HTFC (P. aeruginosa [3]; P. aeruginosa Blood Culture C, antibiotic 4 hours (37° C.)): (S) | susceptibility classification, HTFC (P. aeruginosa [3]; P. aeruginosa PA7, antibiotic 4 hours (37° C.)): (S) | susceptibility classification, HTFC (P. aeruginosa [3]; P. aeruginosa PA46, antibiotic 4 hours (37° C.)): (S) | susceptibility classification, HTFC (P. aeruginosa [3]; P. aeruginosa PA49, antibiotic 4 hours (37° C.)): (S) | susceptibility classification, HTFC (P. aeruginosa [3]; P. aeruginosa PA81, antibiotic 4 hours (37° C.)): (R) | susceptibility classification, HTFC (P. aeruginosa [3]; P. aeruginosa PAO1, antibiotic 4 hours (37° C.)): (S) | MIC (P. aeruginosa [3]; 4 h, P. aeruginosa Blood Culture B, antibiotic 4 hours (37° C.)): 2 µg/mL (≈ 5.22 µM) | MIC (P. aeruginosa [3]; 4 h, P. aeruginosa Blood Culture C, antibiotic 4 hours (37° C.)): 0.125 µg/mL (≈ 0.326 µM) | MIC (P. aeruginosa [3]; 4 h, P. aeruginosa PA7, antibiotic 4 hours (37° C.)): 2 µg/mL (≈ 5.22 µM) | MIC (P. aeruginosa [3]; 4 h, P. aeruginosa PA46, antibiotic 4 hours (37° C.)): 1 µg/mL (≈ 2.61 µM) | MIC (P. aeruginosa [3]; 4 h, P. aeruginosa PA49, antibiotic 4 hours (37° C.)): 0.5 µg/mL (≈ 1.3 µM) | MIC (P. aeruginosa [3]; 4 h, P. aeruginosa PA81, antibiotic 4 hours (37° C.)): 8 µg/mL (≈ 20.9 µM) | MIC (P. aeruginosa [3]; PAO1, 4 h, P. aeruginosa PAO1, antibiotic 4 hours (37° C.)): 2 µg/mL (≈ 5.22 µM) | susceptibility classification, BMD (P. aeruginosa [4]; P. aeruginosa Blood Culture B, broth microdilution): (R) | susceptibility classification, BMD (P. aeruginosa [4]; P. aeruginosa Blood Culture C, broth microdilution): (S) | susceptibility classification, BMD (P. aeruginosa [4]; P. aeruginosa PA7, broth microdilution): (S) | susceptibility classification, BMD (P. aeruginosa [4]; P. aeruginosa PA46, broth microdilution): (S) | susceptibility classification, BMD (P. aeruginosa [4]; P. aeruginosa PA49, broth microdilution): (S) | susceptibility classification, BMD (P. aeruginosa [4]; P. aeruginosa PA81, broth microdilution): (R) | susceptibility classification, BMD (P. aeruginosa [4]; P. aeruginosa PAO1, broth microdilution): (S)

Source: patent publication US20240368667A1, “RAPID, LABEL-FREE ANTIBIOTIC SUSCEPTIBILITY OF BACTERIA DIRECTLY FROM POSITIVE BLOOD OR BODILY FLUID/CULTURE” (priority 2021, published 2024)
